Laboratory results from PMC6979384, “Characterization of the plant homeodomain (PHD) reader family for their histone tail interactions” (Epigenetics & Chromatin, 2020).

Experiments:
Assay in all cases: Histone peptide microarray
Assay type in all cases: binding, human
[1] = tested on: AIRE (PP); settings: GST-tagged AIRE (PP); histone peptide array; arrays performed twice, n of 4
In short: (§1)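 GST-PHD reader, 0.5 μM, probed on 293-peptide histone array (single/combinatorial PTMs); optimized array protocol; signal = mean ± SD, n = 4.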

[2] = tested on: BAZ2B; settings: GST-tagged BAZ2B; histone peptide array; arrays performed twice, n of 4
In short: as §1

[3] = tested on: BPTF (PB); settings: GST-tagged BPTF (PB = PHD + Bromodomain); histone peptide array; arrays performed twice, n of 4
In short: as §1

[4] = tested on: CHD4 (PPCC); settings: GST-tagged CHD4 (PPCC = Dual PHD + Dual Chromodomain); histone peptide array; arrays performed twice, n of 4
In short: as §1

[5] = tested on: CHD5 (PCC); settings: GST-tagged CHD5 (PCC = PHD + Dual Chromodomain); histone peptide array; arrays performed twice, n of 4
In short: as §1

[6] = tested on: CHD5 (PPCC); settings: GST-tagged CHD5 (PPCC = Dual PHD + Dual Chromodomain); histone peptide array; arrays performed twice, n of 4
In short: as §1

[7] = tested on: DIDO1; settings: GST-tagged DIDO1; histone peptide array; arrays performed twice, n of 4
In short: as §1

[8] = tested on: DPF2 (PPC2W2); settings: GST-tagged DPF2 (PPC2W2 = Dual PHD + C2W2-type Zn-finger); histone peptide array; arrays performed twice, n of 4
In short: as §1

[9] = tested on: ING1; settings: GST-tagged ING1; histone peptide array; arrays performed twice, n of 4
In short: as §1

[10] = tested on: ING2; settings: GST-tagged ING2; histone peptide array; arrays performed twice, n of 4
In short: as §1

[11] = tested on: ING3; settings: GST-tagged ING3; histone peptide array; arrays performed twice, n of 4
In short: as §1

[12] = tested on: ING4; settings: GST-tagged ING4; histone peptide array; arrays performed twice, n of 4
In short: as §1

[13] = tested on: ING5; settings: GST-tagged ING5; histone peptide array; arrays performed twice, n of 4
In short: as §1

[14] = tested on: KDM4C (TTP); settings: GST-tagged KDM4C (TTP = Tandem Tudor domain + PHD); histone peptide array; arrays performed twice, n of 4
In short: as §1

[15] = tested on: KDM5A (1); settings: GST-tagged KDM5A (1); histone peptide array; arrays performed twice, n of 4
In short: as §1

[16] = tested on: KDM5A (3); settings: GST-tagged KDM5A (3); histone peptide array; arrays performed twice, n of 4
In short: as §1

[17] = tested on: KDM5B (1); settings: GST-tagged KDM5B (1); histone peptide array; arrays performed twice, n of 4
In short: as §1

[18] = tested on: KDM5B (3); settings: GST-tagged KDM5B (3); histone peptide array; arrays performed twice, n of 4
In short: as §1

[19] = tested on: KDM7A; settings: GST-tagged KDM7A; histone peptide array; arrays performed twice, n of 4
In short: as §1

[20] = tested on: MLL5; settings: GST-tagged MLL5; histone peptide array; arrays performed twice, n of 4
In short: as §1

[21] = tested on: MORC3 (CW); settings: GST-tagged MORC3 (CW = CW-type Zn-finger); histone peptide array; arrays performed twice, n of 4
In short: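 Readout is array binding signal, reported as the mean and standard deviation over four replicates. Each purified GST-fused PHD domain was incubated at 0.5 μM with a library of 293 modified histone peptides.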

[22] = tested on: PHF13; settings: GST-tagged PHF13; histone peptide array; arrays performed twice, n of 4
In short: as §1

[23] = tested on: PHF21A; settings: GST-tagged PHF21A; histone peptide array; arrays performed twice, n of 4
In short: as §1

[24] = tested on: PHF23; settings: GST-tagged PHF23; histone peptide array; arrays performed twice, n of 4
In short: as §1

[25] = tested on: PHF2; settings: GST-tagged PHF2; histone peptide array; arrays performed twice, n of 4
In short: as §1

[26] = tested on: PHF8; settings: GST-tagged PHF8; histone peptide array; arrays performed twice, n of 4
In short: as §1

[27] = tested on: PHRF1 (RP); settings: GST-tagged PHRF1 (RP); histone peptide array; arrays performed twice, n of 4
In short: as §1

[28] = tested on: RAG2; settings: GST-tagged RAG2; histone peptide array; arrays performed twice, n of 4
In short: as §1

[29] = tested on: SP140L; settings: GST-tagged SP140L; histone peptide array; arrays performed twice, n of 4
In short: as §1

[30] = tested on: TAF3; settings: GST-tagged TAF3; histone peptide array; arrays performed twice, n of 4
In short: as §1

[31] = tested on: TRIM66 (PB); settings: GST-tagged TRIM66 (PB = PHD + Bromodomain); histone peptide array; arrays performed twice, n of 4
In short: as §1

Substance	Array Heatmap signal, AIRE (PP) [1]	Array Heatmap signal, BAZ2B [2]	Array Heatmap signal, BPTF (PB) [3]	Array Heatmap signal, CHD4 (PPCC) [4]	Array Heatmap signal, CHD5 (PCC) [5]	Array Heatmap signal, CHD5 (PPCC) [6]	Array Heatmap signal, DIDO1 [7]	Array Heatmap signal, DPF2 (PPC2W2) [8]	Array Heatmap signal, ING1 [9]	Array Heatmap signal, ING2 [10]	Array Heatmap signal, ING3 [11]	Array Heatmap signal, ING4 [12]	Array Heatmap signal, ING5 [13]	Array Heatmap signal, KDM4C (TTP) [14]	Array Heatmap signal, KDM5A (1) [15]	Array Heatmap signal, KDM5A (3) [16]	Array Heatmap signal, KDM5B (1) [17]	Array Heatmap signal, KDM5B (3) [18]	Array Heatmap signal, KDM7A [19]	Array Heatmap signal, MLL5 [20]	also measured
H4R3me2a: H4 1-23 [Peptide H4R3me2a]	0.5327	0.5399	0.3886	0.544	0.8242	0.5601	0.7103	0.6681	0.5321	0.6586	0.4883	0.4842	0.4061	0.5587	0.4898	0.5304	0.6754	0.6206	0.5968	0.6462	Array Heatmap signal, MORC3 (CW) [21]: 0.3932; Array Heatmap signal, PHF13 [22]: 0.6445; Array Heatmap signal, PHF21A [23]: 0.4696; Array Heatmap signal, PHF23 [24]: 0.5402; Array Heatmap signal, PHF2 [25]: 0.4976; Array Heatmap signal, PHF8 [26]: 0.391; Array Heatmap signal, PHRF1 (RP) [27]: 0.4379; Array Heatmap signal, RAG2 [28]: 0.3803; Array Heatmap signal, SP140L [29]: 0.3676; Array Heatmap signal, TAF3 [30]: 0.3922; Array Heatmap signal, TRIM66 (PB) [31]: 0.665
H4R3me2s + K5ac + K8ac + K12ac + K16ac + K20ac: H4 1-23	0.4445	0.4891	0.483	0.5891	0.7755	0.5595	0.8519	0.6954	0.5887	0.6618	0.4923	0.4768	0.3711	0.4958	0.4598	0.5291	0.6719	0.4887	0.3478	0.5888	Array Heatmap signal, MORC3 (CW) [21]: 0.4281; Array Heatmap signal, PHF13 [22]: 0.6071; Array Heatmap signal, PHF21A [23]: 0.4472; Array Heatmap signal, PHF23 [24]: 0.5758; Array Heatmap signal, PHF2 [25]: 0.6188; Array Heatmap signal, PHF8 [26]: 0.384; Array Heatmap signal, PHRF1 (RP) [27]: 0.4884; Array Heatmap signal, RAG2 [28]: 0.3093; Array Heatmap signal, SP140L [29]: 0.3449; Array Heatmap signal, TAF3 [30]: 0.282; Array Heatmap signal, TRIM66 (PB) [31]: 0.6231
H4R3me2s: H4 1-23 [Peptide H4R3me2s]	0.462	0.5351	0.3851	0.556	0.8078	0.5547	0.7583	0.7228	0.5148	0.6344	0.498	0.4621	0.3741	0.5129	0.4765	0.6488	0.7045	0.5522	0.4774	0.6336	Array Heatmap signal, MORC3 (CW) [21]: 0.4671; Array Heatmap signal, PHF13 [22]: 0.6145; Array Heatmap signal, PHF21A [23]: 0.451; Array Heatmap signal, PHF23 [24]: 0.6199; Array Heatmap signal, PHF2 [25]: 0.5067; Array Heatmap signal, PHF8 [26]: 0.4581; Array Heatmap signal, PHRF1 (RP) [27]: 0.4693; Array Heatmap signal, RAG2 [28]: 0.376; Array Heatmap signal, SP140L [29]: 0.3481; Array Heatmap signal, TAF3 [30]: 0.3502; Array Heatmap signal, TRIM66 (PB) [31]: 0.614
